Legend:
human tumor cells = settings: cited from earlier work
B16-F10 melanoma cells = test: B16-F10 cell growth / proliferation monitoring; type: cell-based; settings: eATP, 2 mM, compared with AuNC@ATP 2.25 μM
tumor = settings: intraperitoneal injection of ATP (50 mM); cited from earlier work
[1] = test system: human prostate cancer xenografts; settings: daily intraperitoneal administration of ATP (25 mM); cited from earlier work

Compound	growth of human tumor cells (cell cycle) (human tumor cells)	inhibiting B16-F10 cell proliferation (B16-F10 melanoma cells)	tumor size (tumor)	tumor regression [1]
Nc1ncnc2c1ncn2[C@@H]1O[C@H](COP(=O)(O)OP(=O)(O)O)[C@@H](O)[C@H]1O [ADP]	arrest of growth in the S phase			
Nc1ncnc2c1ncn2[C@@H]1O[C@H](COP(=O)(O)OP(=O)(O)OP(=O)(O)O)[C@@H](O)[C@H]1O [free ATP, Adenosine triphosphate]	arrest of growth in the S phase	does not achieve the same level of effectiveness	effectively reduced tumor size	significant tumor regression
